Reference: patent US7318917B2, “Rapid assays for neurotransmitter transporters” (Vanderbilt University, priority 2002, dated 2008)

Tests used:
[1] = biological target: T1, NET (Homo sapiens, UniProt P23975); assay: [3H]NE accumulation (radiolabeled transport assay) in hNET-transfected HEK-293 cells; assay type: cell-based; design: expressed in transfected cells; conditions: Cheng-Prusoff correction, non-specific by 10 μM desipramine, N=5, mean±S.E.M., read-out: Ki, inhibition of [3H]NE accumulation
T1 sequence (P23975 whole entry): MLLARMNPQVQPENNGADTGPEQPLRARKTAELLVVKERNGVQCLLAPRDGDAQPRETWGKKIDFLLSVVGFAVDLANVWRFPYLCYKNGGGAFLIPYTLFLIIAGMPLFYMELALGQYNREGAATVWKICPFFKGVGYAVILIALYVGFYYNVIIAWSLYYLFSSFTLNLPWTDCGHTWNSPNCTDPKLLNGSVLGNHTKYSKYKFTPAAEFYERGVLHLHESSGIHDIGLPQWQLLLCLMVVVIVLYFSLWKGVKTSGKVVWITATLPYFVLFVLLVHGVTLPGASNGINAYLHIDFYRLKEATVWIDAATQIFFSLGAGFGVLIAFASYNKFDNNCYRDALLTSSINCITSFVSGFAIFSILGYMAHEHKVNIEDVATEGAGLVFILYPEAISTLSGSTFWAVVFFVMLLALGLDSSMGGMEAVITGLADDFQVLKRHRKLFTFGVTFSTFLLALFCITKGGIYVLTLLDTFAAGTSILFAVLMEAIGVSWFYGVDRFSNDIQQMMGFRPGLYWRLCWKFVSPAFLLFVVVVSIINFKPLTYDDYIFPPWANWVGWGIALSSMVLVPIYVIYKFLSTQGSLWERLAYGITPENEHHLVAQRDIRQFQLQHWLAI
Procedure: FIG. 1. MPP^+ and ASP^+ inhibit NE accumulation. [^3H]NE accumulation was measured in the hNET-transfected HEK-293 cells in the presence of increasing concentrations of ASP^+ or MPP^+ and normalized to similar data in the absence of an inhibitor. […]. The data were fit to NE transport remaining by the equation y=100/(1+([I]/IC50)^n), where [I] is the concentration of ASP^+ or MPP^+ and Ki values were determined using Cheng-Prusoff correction for substrate concentration. […] Values are represented as means±S.E.M., N=5.
All accumulation studies were performed at room temperature (22° C.) unless otherwise indicated. HEK-hNET cells were plated on poly-L-lysine coated 24-well tissue culture plates at 10^5 cells per well three days prior to performing transport assays. The cells were at approximately 90% confluence on the third day. The medium was removed by aspiration. Cells were then pre-incubated for 10 min in Krebs-Ringer's-Hepes (KRH: in mM 130 NaCl, 1.3 KCl, 2.2 CaCl2, 1.2 MgSO4, 1.2 KH2PO4, 10 Hepes, and 1.8 g/L glucose, pH 7.4) medium with or without 10 μM desipramine. […]. Pargyline (10 μM) and ascorbic acid (10 μM) were added to prevent metabolism and oxidation of NE, respectively. The assay mixture was aspirated after 10 minutes and cells were washed three times with 4° C. […] Accumulated [^3H]NE was determined by liquid scintillation of 1% (w/v) sodium dodecylsulphate solubilized cells. […]

[2] = biological target: T1, NET; assay: ASP+ accumulation in HEK-hNET cells by confocal fluorescence microscopy (phase I binding, phase II transport); design: NET-mediated ASP accumulation after pre-incubation (endocytosis test): dose or concentration left out as unconfirmed; conditions: for phase II (ASP+ transport) slope in the presence of the agent: 10 min pre-incubation with 10 μM cocaine or 30 μM NE; for phase II (ASP+ transport) slope in the presence of the agent / phase I (ASP+ binding) slope in the presence of the agent: then 2 μM ASP+, gramicidin 10 mg/mL 15 min before ASP+; for phase I (ASP+ binding) slope in the presence of the agent: 10 min pre-incubation with 10 μM desipramine, 10 μM cocaine or 30 μM NE
[3] = tested on: OCT; conditions: 10 μM; cited from earlier work
[4] = tested on: NET; assay type: cell-based; conditions: 2 μM ASP+, 10 min pre-incubation with 10 μM desipramine
Procedure: SCG neurons were dissociated by trituration followed by digestion with 0.25% trypsin and 0.3% collagenase. Non-neuronal cells were removed by preplating on uncoated, Falcon 60 mm plates. Neurons were cultured on poly-L-ornithine/laminin/poly D-lysine coated MatTek Dishes at a density of 3000-4000 cells/well in F-14^+ media containing 5% fetal calf serum, 2 mM L-glutamine, 60 ng/ml progesterone, 16 mg/ml putrescine, 400 ng/ml L-thyroxine, 38 ng/ml sodium selenite, 340 ng/ml tri-iodothyroxine, 5 mg/ml insulin, penicillin/streptomycin, 10 μM fluorodeoxyuridine and 20 ng/ml NGF. The neurons were maintained for 3-5 days in the presence of NGF before use.
The interactions of ASP^+ with NET in primary tissue culture neurons were also examined.

C[n+]1ccc(-c2ccccc2)cc1 [MPP^+]
Ki [1]: 600 ± 67 nM

NC[C@H](O)c1ccc(O)c(O)c1 [NE]
phase II (ASP+ transport) slope in the presence of the agent [2]: reduced
phase I (ASP+ binding) slope in the presence of the agent [2]: insignificant
effect on ASP+ accumulation in hNET-expressing HEK cells ([2]; summary statement): competed for

CNCCCN1c2ccccc2CCc2ccccc21 [desipramine]
effect on OCT activity [3]: without affecting
sensitivity of ASP+ accumulation in SCG cells to desipramine [4]: desipramine sensitive

OC[C@H]1O[C@@](CO)(O[C@H]2O[C@H](CO)[C@@H](O)[C@H](O)[C@H]2O)[C@@H](O)[C@@H]1O [sucrose]
NET-mediated ASP accumulation after pre-incubation (endocytosis test) ([2]; thirty-minute pre-incubation): unaffected

Gramicidin
phase II (ASP+ transport) slope in the presence of the agent [2]: reduces the slope
phase I (ASP+ binding) slope in the presence of the agent [2]: reduces the slope
